Reference: PMC4038399, “Experimental validation of [sequence]^comb virtual ligand screening results for eight proteins yields novel nanomolar and micromolar binders” (Journal of Cheminformatics, 2014)
In brackets after ≈: the same amount, converted by molar mass. Where two headings read alike, the source gives them in different places.

Assays:
[1] = tested on: HCT-116 colon carcinoma cell line; experiment: Cytotoxic assay on cancer cell line; assay type: cell-based; details: for IC50: Homo sapiens, HCT-116, inhibitory concentration for 50% growth inhibition, read-out: HCT-116 (IC-50)
Experimental: Antimicrobial and anti-cancer tests were performed as in [80].

[2] = target: T1, 1000006: catalytic domain of protein tyrosine phosphatase (2G59) (Homo sapiens, UniProt Q16827); experiment: Thermal shift (thermal melt) assay, Sypro orange; assay type: binding, H. sapiens; details: for Q (quality score): ratio ΔFmelt/ΔFtotal
T1 construct: the catalytic domain of PTP from H. sapiens (PDB ID: 2G59) (1000006); New York structural genomics consortium (gift)
T1 sequence (Q16827 938-1195 limits assumed): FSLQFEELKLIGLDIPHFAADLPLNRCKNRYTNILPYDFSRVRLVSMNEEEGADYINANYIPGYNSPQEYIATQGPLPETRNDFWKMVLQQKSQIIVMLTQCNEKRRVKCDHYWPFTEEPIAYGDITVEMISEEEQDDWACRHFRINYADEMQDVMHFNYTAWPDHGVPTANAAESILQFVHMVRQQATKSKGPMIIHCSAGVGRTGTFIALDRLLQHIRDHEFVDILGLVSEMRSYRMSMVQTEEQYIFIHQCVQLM
Experimental: (§1) High throughput thermal shift assays were carried out following established guidelines (Additional file 1: Table S1). Protein melting curves were obtained from samples aliquoted in 96-well plates using a RealPlex quantitative PCR instrument from Eppendorf (Eppendorf, NY, USA), with Sypro orange dye from Invitrogen as the fluorescent probe. A uniform final concentration of 5 X (supplied as a 5000 X stock solution) was used in all experiments. The dye was excited at 465 nm and emission recorded at 580 nm using the instrument’s filters. A heating ramp of 1°C/min from 25°C to 74°C was used, and one data point acquired for each degree increment. For standardization, different buffers and pH were checked. Thereafter, 100 mM HEPES pH 7.3 and 150 mM NaCl were used in all unfolding experiments. The volume of each reaction was 20 μl, and appropriate dye and protein controls were included. All experiments were done with a minimum of two replicates, with the mean value considered for further analysis. Several drugs/small molecules interact with Sypro orange and lead to aberrant signal enhancements. An additional control to rule out drug-dye interaction was carried out with all the constituents kept constant except for the protein of interest. The protein/protein-drug curves were reported after subtracting the respective dye alone/drug-dye curves.
(§2) Each melting curve was assigned a quality score (Q), the ratio of the melting-associated increase in fluorescence (ΔFmelt) to the total fluorescence range (ΔFtotal). Q = 1 is a high-quality curve, while Q = 0 indicates no thermal transition. Though an arbitrary Q value cutoff was not applied to judge curve quality, the curves were manually curated with Q values reported. […] These were ignored (see Table 1).
(§3) Subsequent to standardization, (see SI Methods), the validity of the top 1% of […]^comb’s predictions on the test set of eight diverse proteins was examined. To be conservative, we focused only on those protein/ligand pairs showing single sigmoidal thermal transition curves. The fit to Boltzmann’s equation (Eq. 1) was employed to estimate the melting temperature from the observed intensity, I.
(§4) (4) I=Imin+Imax-Imin/1+e^Tm-T/a
(§5) Imin and Imax are the minimum and maximum intensities; a denotes the slope of the curve at the transition midpoint temperate, Tm. To estimate thermodynamic parameters, both van’t Hoff and Gibbs-Helmholtz analyses were done. To estimate the approximate ligand-binding affinity at Tm, Eq. (2) from reference was used with slight modifications; ΔCp is ignored.
(§6) (5) KLTm=exp-ΔH/R1/Tm-1/To/L
(§7) KL(Tm) is the ligand association constant and [L] is the free ligand concentration at Tm ([LTm] ~ [L]total, when [L]total > > the total concentration of protein. KD is the inverse of KL(Tm).
(§8) Thermal unfolding of the eight benchmark proteins was carried out in a 20 μl reaction mix with 100 mM HEPES pH 7.3, 150 mM NaCl, 5 X Sypro orange dye, 10 μM protein and 1 mM of all the predicted ligands.

[3] = target: T2, 1000001: Carboxy-terminus phosphatase domain of protein tyrosine phosphatase (2NV5) (Mus musculus, UniProt Q64487); experiment: Thermal shift (thermal melt) assay, Sypro orange; assay type: binding, M. musculus; design: key to Q (quality score): Q = ΔFmelt/ΔFtotal; 1 = high-quality curve, 0 = no transition; details: for Q (quality score): ratio ΔFmelt/ΔFtotal
T2 construct: The C-terminal phosphatase domain from R. norvegicus (PDB ID: 2NV5) (1000001); New York structural genomics consortium (gift)
T2 sequence (Q64487 1331-1621): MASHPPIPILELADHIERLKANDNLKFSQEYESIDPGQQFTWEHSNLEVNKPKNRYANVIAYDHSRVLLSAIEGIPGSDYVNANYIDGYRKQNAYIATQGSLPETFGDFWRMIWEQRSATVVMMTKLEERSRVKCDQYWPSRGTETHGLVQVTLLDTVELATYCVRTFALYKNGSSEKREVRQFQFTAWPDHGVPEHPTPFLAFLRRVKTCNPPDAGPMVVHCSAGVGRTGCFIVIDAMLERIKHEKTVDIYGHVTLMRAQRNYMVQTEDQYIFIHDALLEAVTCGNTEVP
Experimental: as §1, §2, §3, §4, §5, §6, §7, §8

[4] = target: E. coli dihydrofolate reductase (DHFR) (Escherichia coli, UniProt P0ABQ4); experiment: biochemical; assay type: binding; details: for Q (quality score): ratio ΔFmelt/ΔFtotal of the melting curve; for ΔTm: thermal shift, in °C (unit assumed)
Chain of E. coli dihydrofolate reductase (DHFR) (P0ABQ4 whole entry): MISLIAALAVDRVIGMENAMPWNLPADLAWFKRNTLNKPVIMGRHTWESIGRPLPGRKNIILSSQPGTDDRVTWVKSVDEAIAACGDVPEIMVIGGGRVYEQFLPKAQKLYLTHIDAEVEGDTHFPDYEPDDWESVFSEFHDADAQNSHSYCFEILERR
Experimental: as §1, with “The dye was excited at 465 nm and emission recorded at 580 nm using the instrument’s filters. A heating ramp of 1°C/min from 25°C to 74°C was used, and one data point acquired for each degree increment.” left out
Each melting curve was assigned a quality score (Q), the ratio of the melting-associated increase in fluorescence (ΔFmelt) to the total fluorescence range (ΔFtotal). Q = 1 is a high-quality curve, while Q = 0 indicates no thermal transition. Though an arbitrary Q value cutoff was not applied to judge curve quality, the curves were manually curated with Q values reported.
as §3, §4, §5, §6, §7, §8

[5] = Table S4, protein 1000006, computed from the thermal shifts obtained, read-out: KD (Approx)
[6] = Table S4, protein 1000006, in °C (unit assumed)
[7] = approximate, computed from the thermal shift, read-out: KD
[8] = Table S6, known binders of 1000001 tested on 1000006, in °C (unit assumed)
[9] = Table S4, protein 1000001, computed from the thermal shifts obtained, read-out: KD (Approx)
[10] = Table S4, protein 1000001, in °C (unit assumed)
[11] = Table S6, 1000001, known binders of 1000001, in °C (unit assumed)
[12] = Table S3, computed from the thermal shifts obtained, read-out: KD (Approx)
[13] = inhibitory concentration for 50% growth inhibition

Row | Structure (SMILES) | ΔTm [2, 8] | Kd [3, 9] | ΔTm [3, 10] | Q (quality score) ([3]; Table S4, protein 1000001) | ΔTm [3, 11] | Q (quality score) ([4]; Table S3) | other results
1 | Nc1cc([N+](=O)[O-])ccc1Nc1ccc(O)cc1 [NSC 92794] | – | – | – | – | – | – | HCT-116 (IC-50) ([1]; inhibitory concentration for 50% growth inhibition, listed as 92794): 9.78 µg/mL; HCT-116 (IC-50) ([1]; inhibitory concentration for 50% growth inhibition, listed as NSC92794): 9.8 µg/mL; Kd [2, 5]: ~162000 nM; ΔTm [2, 6]: 2.26; Q (quality score) ([2]; Table S4, protein 1000006): 0.004; Kd [2, 7]: 162000 nM
2 | COc1cc(C(=O)C(=O)c2ccc(O)c(OC)c2)ccc1O [NSC 16722] | – | – | – | – | – | – | Kd [2, 5]: ~107000 nM; ΔTm [2, 6]: 3.09; Q (quality score) ([2]; Table S4, protein 1000006): 0.4
3 | Cc1ccc(N=Nc2ccc(N)cc2C)c(S(N)(=O)=O)c1 [NSC 45527] | 5.48 | ~567 nM | 11.7 | 0.04 | 11.79 | – | –
4 | N/C(CC(=O)Nc1cc(C(F)(F)F)ccc1Cl)=N\O [NSC 379536] | – | – | – | – | – | 0.3 | Kd [4, 12]: ~28900 nM; ΔTm ([4]; Table S3): 8.86
5 | Nc1ccc(Oc2ccc(N)c([N+](=O)[O-])c2)cc1[N+](=O)[O-] [NSC 133351] | – | – | – | – | – | – | Kd [2, 5]: ~168 nM; Q (quality score) ([2]; Table S4, protein 1000006): 0.1; Kd ([2]; approximate, computed from the thermal shift, listed as 133351, read-out: KD): 168 nM; Kd ([2]; approximate, computed from the thermal shift, listed as NSC133351, read-out: KD): ~168 nM; ΔTm ([2]; thermal shift, 1 mM ligand, 10 μM protein): 16.76 °C
6 | C#CCC(Cc1cnc2nc(N)nc(N)c2n1)c1ccc(C(=O)N[C@@H](CCC(=O)O)C(=O)O)cc1 (stereo partly shown) [NSC 754230, pralatrexate, reference compound] | – | – | – | – | – | 0.1 | IC50 [1]: < 0.031 µg/mL; Kd [4, 12]: ~499 nM
7 | O=C(O)c1cc(O)ccc1N=Nc1ccccc1 [NSC 106863] | 0 | ~6470 nM | 7.4 | 1.1 | 7.34 | – | HCT-116 (IC-50) [1, 13]: 14.5 µg/mL
8 | NS(=O)(=O)c1ccc(N=Nc2c(O)c(C(=O)O)cc3ccccc23)cc1 [NSC 134137] | 1.36 | ~406 nM | – | 0.01 | 11.33 | – | Kd ([3]; approximate, computed from the thermal shift, listed as 134137, read-out: KD): 406 nM; Kd ([3]; approximate, computed from the thermal shift, listed as NSC134137, read-out: KD): ~406 nM; ΔTm ([3]; thermal shift, 1 mM ligand, 10 μM protein, listed as 134137): 12.30 °C; ΔTm ([3]; thermal shift, 1 mM ligand, 10 μM protein, listed as NSC134137): ~ 12 °C
9 | O=C(O)Cc1ccc(N=Nc2c(O)c(C(=O)O)cc3ccccc23)cc1 [NSC 156563] | 5.36 | ~1320 nM | 10.2 | 0.004 | 10.66 | – | –
10 | CC(C)=C(c1ccc(Cl)cc1)c1c(N)ncnc1N [NSC 157522] | – | – | – | – | – | 0.4 | Kd [4, 12]: ~19500 nM; ΔTm ([4]; Table S3): 10.13
11 | Nc1cc(-c2ccccc2)ccc1O [NSC 7950] | – | – | – | – | – | – | Kd [2, 5]: ~271000 nM; ΔTm [2, 6]: 1.22; Q (quality score) ([2]; Table S4, protein 1000006): 0.3
12 | O=C(Nc1ccc(Oc2ccc(NC(=O)Nc3ccc([N+](=O)[O-])cc3)cc2)cc1)Nc1ccc([N+](=O)[O-])cc1 [NSC 80735] | – | – | – | – | – | 0.3 | HCT-116 (IC-50) ([1]; Table S3): 10.9; IC50 against HCT-116 ([1]; as worded): 10.9 µg/mL (≈ 20.6 µM); Kd [4, 12]: ~1710 nM; ΔTm ([4]; Table S3): 18.16; Kd [4, 7]: 1700 nM
13 | CCCCC(=O)OCC(=O)[C@]1(O)Cc2c(O)c3c(c(O)c2[C@@H](O[C@H]2C[C@H](NC(=O)C(F)(F)F)[C@H](O)[C@H](C)O2)C1)C(=O)c1c(OC)cccc1C3=O [NSC 246131, valrubicin, reference compound] | 5.62 | ~1470 nM | 9.99 | 0.2 | 10.31 | – | IC50 [1]: 0.024 µg/mL (≈ 0.0332 µM); Kd [3, 7]: ~1500 nM
14 | O=C(Nc1ccc(C(=O)O)c(O)c1)c1ccccc1 [NSC 159686] | – | – | – | – | – | 0.6 | Kd [4]: ~12700 nM
15 | C1=Cc2ccccc2Nc2ccccc21 [NSC 123458] | – | – | – | – | – | 0.6 | Kd [4, 12]: ~5640 nM; ΔTm ([4]; Table S3): 14.17
16 | O=S(=O)(O)c1ccc(N=Nc2ccccc2)cc1 [NSC 1847] | 0 | ~43800 nM | 4.1 | 0.5 | 4.23 | – | –
17 | COc1cc(N=Nc2ccccc2C(=O)O)ccc1O [NSC 153172] | 5.48 | ~2190 nM | 9.3 | 0.1 | 9.70 | – | –
18 | CCOc1ccc(Nc2c3ccccc3nc3ccccc23)cc1 [NSC 30205] | – | ~6850 nM | 7.3 | 0.01 | 9.91 | – | HCT-116 (IC-50) ([1]; inhibitory concentration for 50% growth inhibition, listed as 30205): 0.146 µg/mL; HCT-116 (IC-50) ([1]; inhibitory concentration for 50% growth inhibition, listed as NSC30205): 0.15 µg/mL; ΔTm ([2]; Table S6, known binders of 1000001 tested on 1000006): Ambiguous
19 | COc1cc(NCc2ccccc2O)c2ncccc2c1 [NSC 130801] | – | – | – | – | – | 1.1 | Kd [4, 12]: ~75000 nM; ΔTm ([4]; Table S3): 5.84
20 | CC(=O)c1cc(O)c2ccccc2c1O [NSC 111552] | 29.52 | ~709 nM | 11.3 | 0.007 | – | – | HCT-116 (IC-50) [1, 13]: 2.2 µg/mL
21 | Nc1nc2[nH]cc(CCc3ccc(C(=O)N[C@@H](CCC(=O)O)C(=O)O)cc3)c2c(=O)[nH]1 [NSC 698037, pemetrexed, reference compound] | – | – | – | – | – | 1.3 | –
